Results: US6737383B1, “Herbicidal oxadiazolidines” (priority 1999, dated 2004)

What was measured:
duck salad = test: Test B flood test duck salad; format: in vivo, Heteranthera limosa
Method in brief: (§1)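 Flood test on plants grown to the 2-leaf stage; treated plants kept in greenhouse twelve to sixteen days, then visually rated against controls on a 0 (no effect) to 10 (complete control) scale.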

velvetleaf = test: Test B pre/postemergence velvetleaf; format: in vivo, Abutilon theophrasti; details: for Plant response rating, Velvetleaf: Rate 250 g/ha
Method in brief: (§2)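 Response is a visual 0-to-10 score relative to untreated plants, where 0 means no effect and 10 means complete control, taken twelve to sixteen days after application. Treatments went onto soil at planting and onto foliage of 1- to 4-leaf plants, using a surfactant-containing non-phytotoxic solvent.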

rape = test: Test B pre/postemergence rape; format: in vivo, Brassica napus
Method in brief: as §2

pigweed = test: Test B pre/postemergence pigweed; format: in vivo, Amaranthus retroflexus
Method in brief: as §2

morningglory = test: Test B pre/postemergence morningglory; format: in vivo, Ipomoea hederacea
Method in brief: as §2

crabgrass = test: Test B pre/postemergence crabgrass; format: in vivo, Digitaria sanguinalis
Method in brief: as §2

rice = test: Test B flood test rice; format: in vivo, Oryza sativa
Method in brief: as §1

wild oat = test: Test B pre/postemergence wild oat; format: in vivo, Avena fatua; details: for Plant response rating, Wild oats: Rate 250 g/ha
Method in brief: as §2

sugar beet = test: Test B pre/postemergence sugar beet; format: in vivo, Beta vulgaris; details: for Plant response rating, Sugarbeets: Rate 250 g/ha
Method in brief: as §2

wheat = test: Test B pre/postemergence wheat; format: in vivo, Triticum aestivum; details: for Plant response rating, Wheat: Rate 250 g/ha
Method in brief: as §2

bamyardgrass = test: Test B flood test barnyardgrass; format: in vivo, Echinochloa crus-galli
Method in brief: as §1

purple nutsedge = test: Test B pre/postemergence purple nutsedge; format: in vivo, Cyperus rotundus
Method in brief: as §2

soybean = test: Test B pre/postemergence soybean; format: in vivo, Glycine max
Method in brief: as §2

cocklebur = test: Test B pre/postemergence cocklebur; format: in vivo, Xanthium strumarium
Method in brief: as §2

corn = test: Test B pre/postemergence corn; format: in vivo, Zea mays
Method in brief: as §2

giant foxtail = test: Test B pre/postemergence giant foxtail; format: in vivo, Setaria faberii
Method in brief: as §2

[1] = Postemergence (flood test species), Rate 125 g/ha, scale of 0 to 10 where 0 is no effect and 10 is complete control
[2] = Rate 62 g/ha, Postemergence section, flood test species, scale of 0 to 10 where 0 is no effect and 10 is complete control
[3] = Rate 250 g/ha, headed Pre-emergence (flood test species), scale 0 to 10 (0 no effect, 10 complete control)
[4] = Rate 500 g/ha, headed Pre-emergence (flood test species), scale 0 to 10 (0 no effect, 10 complete control)
[5] = Rate 500 g/ha, listed under Postemergence (flood test species), scale 0 to 10, 0 no effect, 10 complete control
[6] = Rate 1000 g/ha, Pre-emergence (as headed), scale 0 to 10
[7] = Rate 2000 g/ha, Pre-emergence (as headed), scale 0 to 10
[8] = flood test, listed under Postemergence, Rate 250 g/ha, scale 0 to 10, 0 no effect, 10 complete control
[9] = Postemergence, Rate 125 g/ha, scale of 0 to 10 where 0 is no effect and 10 is complete control
[10] = Preemergence, Rate 62 g/ha, scale 0 to 10 (0 no effect, 10 complete control)
[11] = Preemergence, Rate 125 g/ha, 0 is no effect, 10 is complete control
[12] = Preemergence, scale of 0 to 10 where 0 is no effect and 10 is complete control
[13] = Preemergence, Rate 500 g/ha, scale 0 to 10 (0 no effect, 10 complete control)
[14] = Rate 62 g/ha, Postemergence, scale of 0 to 10 where 0 is no effect and 10 is complete control
[15] = Postemergence, scale 0 to 10, 0 is no effect, 10 is complete control
[16] = Rate 500 g/ha, Postemergence, scale 0 to 10, 0 no effect, 10 complete control
[17] = Postemergence, Rate 250 g/ha, scale 0 to 10, 0 no effect, 10 complete control
[18] = Preemergence, Rate 125 g/ha, scale 0 to 10 (0 no effect, 10 complete control)
[19] = Preemergence, Rate 250 g/ha, scale of 0 to 10 where 0 is no effect and 10 is complete control
[20] = Rate 250 g/ha, Postemergence, scale 0 to 10, 0 is no effect, 10 is complete control

CC(C)N(C(=O)n1oc(=O)n(C2CCCCC2)c1=O)c1ccc(Cl)cc1 [Compound 111]
3: Plant response rating, Velvetleaf (velvetleaf; [12]) | Rape plant response rating (rape; [9]) | Rape plant response rating (rape; [17]) | Rape plant response rating (rape; [14]) | Redroot pigweed plant response rating (pigweed; [9]) | Redroot pigweed plant response rating (pigweed; [10]) | Redroot pigweed plant response rating (pigweed; [14]) | Crabgrass plant response rating (crabgrass; [17]) | Sugarbeets plant response rating (sugar beet; [9]) | Plant response rating, Sugarbeets (sugar beet; [12]) | Plant response rating, Sugarbeets (sugar beet; [15]) | Wheat plant response rating (wheat; [13]) | Soybean plant response rating (soybean; [9]) | Soybean plant response rating (soybean; [14]) | Cocklebur plant response rating (cocklebur; [16])
1: Crabgrass plant response rating (crabgrass; [14]) | Plant response rating, Wild oats (wild oat; [15]) | Plant response rating, Corn (corn; [18])
5: Morningglory plant response rating (morningglory; [9]) | Morningglory plant response rating (morningglory; [17]) | Soybean plant response rating (soybean; [13]) | Soybean plant response rating (soybean; [16]) | Giant foxtail plant response rating (giant foxtail; [17])
0: Ducksalad plant response rating (duck salad; [1]) | Ducksalad plant response rating (duck salad; [2]) | Ducksalad plant response rating (duck salad; [3]) | Plant response rating, Ducksalad (duck salad; [4]) | Ducksalad plant response rating (duck salad; [5]) | Ducksalad plant response rating (duck salad; [6]) | Ducksalad plant response rating (duck salad; [7]) | Ducksalad plant response rating (duck salad; [8]) | Velvetleaf plant response rating (velvetleaf; [9]) | Velvetleaf plant response rating (velvetleaf; [10]) | Velvetleaf plant response rating (0 to 10 scale) (velvetleaf; [11]) | Velvetleaf plant response rating (velvetleaf; [14]) | Plant response rating, Velvetleaf (velvetleaf; [15]) | Rape plant response rating (rape; [10]) | Plant response rating, Rape (rape; [18]) | Morningglory plant response rating (morningglory; [10]) | Plant response rating, Morningglory (morningglory; [18]) | Plant response rating, Morningglory (morningglory; [19]) | Morningglory plant response rating (morningglory; [13]) | Rice plant response rating (rice; [1]) | Rice plant response rating (rice; [2]) | Plant response rating, Rice (rice; Rate 250 g/ha, Postemergence (flood test), scale 0 to 10, 0 is no effect, 10 is complete control) | Rice plant response rating (rice; [3]) | Plant response rating, Rice (rice; [4]) | Rice plant response rating (rice; [5]) | Rice plant response rating (rice; [6]) | Rice plant response rating (rice; [7]) | Wild oats plant response rating (wild oat; [9]) | Wild oats plant response rating (wild oat; [10]) | Wild oats plant response rating (0 to 10 scale) (wild oat; [11]) | Wild oats plant response rating (wild oat; [14]) | Sugarbeets plant response rating (sugar beet; [10]) | Sugarbeets plant response rating (0 to 10 scale) (sugar beet; [11]) | Wheat plant response rating (wheat; [9]) | Wheat plant response rating (wheat; [10]) | Wheat plant response rating (0 to 10 scale) (wheat; [11]) | Plant response rating, Wheat (wheat; [12]) | Wheat plant response rating (wheat; [14]) | Plant response rating, Wheat (wheat; [15]) | Wheat plant response rating (wheat; [16]) | Barnyardgrass plant response rating (bamyardgrass; Postemergence, Rate 62 g/ha, scale 0 to 10, 0 is no effect, 10 is complete control) | Barnyardgrass plant response rating (bamyardgrass; Rate 125 g/ha, Postemergence section (flood test species), scale 0 to 10, 0 no effect, 10 complete control) | Barnyardgrass plant response rating (bamyardgrass; [3]) | Plant response rating, Barnyardgrass (bamyardgrass; [4]) | Barnyardgrass plant response rating (bamyardgrass; [5]) | Barnyardgrass plant response rating (bamyardgrass; [6]) | Barnyardgrass plant response rating (bamyardgrass; [8]) | Nutsedge plant response rating (purple nutsedge; [9]) | Nutsedge plant response rating (purple nutsedge; [17]) | Nutsedge plant response rating (purple nutsedge; [10]) | Plant response rating, Nutsedge (purple nutsedge; [18]) | Plant response rating, Nutsedge (purple nutsedge; [19]) | Nutsedge plant response rating (purple nutsedge; [13]) | Nutsedge plant response rating (purple nutsedge; [14]) | Nutsedge plant response rating (purple nutsedge; [16]) | Soybean plant response rating (soybean; [10]) | Cocklebur plant response rating (cocklebur; [9]) | Cocklebur plant response rating (cocklebur; [10]) | Plant response rating, Cocklebur (cocklebur; [18]) | Plant response rating, Cocklebur (cocklebur; [19]) | Cocklebur plant response rating (cocklebur; [13]) | Cocklebur plant response rating (cocklebur; [14]) | Corn plant response rating (corn; [9]) | Corn plant response rating (corn; [17]) | Corn plant response rating (corn; [10]) | Corn plant response rating (corn; [14]) | Corn plant response rating (corn; [16])
9: Plant response rating, Crabgrass (crabgrass; [19]) | Crabgrass plant response rating (crabgrass; [13]) | Crabgrass plant response rating (crabgrass; [16]) | Barnyardgrass plant response rating (bamyardgrass; Rate 2000 g/ha, Pre-emergence (as headed), scale 0 to 10, 0 no effect, 10 complete control) | Plant response rating, Giant foxtail (giant foxtail; [18]) | Giant foxtail plant response rating (giant foxtail; [16])
4: Plant response rating, Rape (rape; [19]) | Rape plant response rating (rape; [13]) | Rape plant response rating (rape; [16]) | Plant response rating, Redroot pigweed (pigweed; [20]) | Morningglory plant response rating (morningglory; [14]) | Wild oats plant response rating (wild oat; [13]) | Sugarbeets plant response rating (sugar beet; [13]) | Sugarbeets plant response rating (sugar beet; [16]) | Plant response rating, Soybean (soybean; [18]) | Plant response rating, Soybean (soybean; [19]) | Plant response rating, Soybean (soybean; [20]) | Plant response rating, Corn (corn; [19]) | Corn plant response rating (corn; [13])
8: Plant response rating, Redroot pigweed (pigweed; [19]) | Redroot pigweed plant response rating (pigweed; [13]) | Morningglory plant response rating (morningglory; [16]) | Giant foxtail plant response rating (giant foxtail; [10])
6: Plant response rating, Redroot pigweed (pigweed; [18]) | Redroot pigweed plant response rating (pigweed; [16]) | Crabgrass plant response rating (crabgrass; [10])
10: Plant response rating, Giant foxtail (giant foxtail; [19]) | Giant foxtail plant response rating (giant foxtail; [13])
7: Velvetleaf plant response rating (velvetleaf; [13]) | Plant response rating, Crabgrass (crabgrass; [18])
2: Velvetleaf plant response rating (velvetleaf; [16]) | Crabgrass plant response rating (crabgrass; [9]) | Plant response rating, Wild oats (wild oat; [12]) | Wild oats plant response rating (wild oat; [16]) | Sugarbeets plant response rating (sugar beet; [14]) | Cocklebur plant response rating (cocklebur; [17]) | Giant foxtail plant response rating (giant foxtail; [9]) | Giant foxtail plant response rating (giant foxtail; [14])
